Type in all cases: cell-based, human
One series has as its system SOD. Briefly: SOD activity (rate of cytochrome c reduction) in BET1A cells. On the procedure: Cell Culture. BET1A, a human bronchial epithelial cell line, was cultured in serum-free Lechner and […] medium (LHC-8, Biofluids, Inc., Rockville, Md.) with additives 0.33 nM retinoic acid, […] epinephrine and the antibiotic combination, 1% penicillin/streptomycin, on plates pre-coated with coating media containing 29 μg/ml collagen (Vitrogen: Collagen Corp., Palo Alto, Calif.), 10 μg/ml bovine serum albumin (Biofluids, Rockville, Md.), and 10 μg/ml fibronectin (Calbiochem, La Jolla, Calif.) for 5 min. HAEC obtained by bronchial brushing were cultured in serum-free Lechner and […] media (LHC8) on plates pre-coated with coating media ([…], et al., Cancer Res 1988, 48:1904-1909). […] T. Baker Inc, […], et al., FASEB J 2001, 15:70-78), or hydrogen peroxide (Sigma, St. Louis, Mo.) in a dose and time dependent manner. 293T cells, a clone of 293 (human embryonic kidney fibroblast cells) that expresses the Simian virus 40 large-T antigen, were maintained in DMEM (Invitrogen) with 10% FCS. Antioxidant assays. Bronchial epithelial cells (BET1A) exposed to 5 µM 2-ME for 30 min to 24 h, or serum of asthmatic individuals, were assayed for glutathione (GSH), glutathione peroxidase (GPx), catalase, and SOD activity. SOD activity was determined by the rate of reduction of cytochrome c, with one unit (U) of SOD activity defined as the amount of SOD required to inhibit the rate of cytochrome c reduction by 50% (Nebot C, et al., Anal Biochem 1993, 214:442-451). The final reaction volume was 3 ml and included 50 mM potassium phosphate buffer, […] cytochrome c, 0.05 mM xanthine, and a 0.1 mM EDTA solution. Xanthine oxidase (Sigma, St Louis, Mo.) was added at a concentration sufficient to induce a 0.020 per minute change in absorbance at 550 nm. GSH levels were measured as previously described (Comhair S A, et al., Am J Respir Crit Care Med 1999, 159:1824-1829).

The test system of the next series is SOD protein. In words: SOD protein in treated BET1A cells. The method, then:
(§1) Cell Culture. BET1A, a human bronchial epithelial cell line, was cultured in serum-free Lechner and LaVeck medium (LHC-8, Biofluids, Inc., Rockville, Md.) with additives 0.33 nM retinoic acid, […] epinephrine and the antibiotic combination, 1% penicillin/streptomycin, on plates pre-coated with coating media containing 29 μg/ml collagen (Vitrogen: Collagen Corp., Palo Alto, Calif.), 10 μg/ml bovine serum albumin (Biofluids, Rockville, Md.), and 10 μg/ml fibronectin (Calbiochem, La Jolla, Calif.) for 5 min. HAEC obtained by bronchial brushing were cultured in serum-free Lechner and LaVeck media (LHC8) on plates pre-coated with coating media (Reddel R R, et al., Cancer Res 1988, 48:1904-1909). To evaluate oxidant stress and antioxidants in apoptotic events, BET-1A cells were stimulated at 70% confluence with SOD inhibitor, 2-Methoxyoestradiol (2-ME) (Sigma, St Louis, Mo.), or pyrogallol, a superoxide generating compound (J. T. Baker Inc, Phillipsburg, N.J.) (Comhair S A, et al., FASEB J 2001, 15:70-78), or hydrogen peroxide (Sigma, St. Louis, Mo.) in a dose and time dependent manner. 293T cells, a clone of 293 (human embryonic kidney fibroblast cells) that expresses the Simian virus 40 large-T antigen, were maintained in DMEM (Invitrogen) with 10% FCS.
(§2) Western Blot Assay. […] Total protein was measured by using the Coomassie protein assay (Pierce, Rockford, Ill.). […]

Series [1] deals with BET1A cells. In words: Cell viability by trypan blue exclusion.
Protocol: BET1A, a human bronchial epithelial cell line, was cultured in serum-free Lechner and LaVeck medium (LHC-8, Biofluids, Inc., Rockville, Md.) with additives 0.33 nM retinoic acid, 2.75 mM epinephrine and the antibiotic combination, 1% penicillin/streptomycin, on plates pre-coated with coating media containing 29 μg/ml collagen (Vitrogen: Collagen Corp., Palo Alto, Calif.), 10 μg/ml bovine serum albumin (Biofluids, Rockville, Md.), and 10 μg/ml fibronectin (Calbiochem, La Jolla, Calif.) for 5 min.
The subject of series [2] is BET1A cells. Briefly: Apoptosis detection by Annexin V binding. The method, then: Cell Culture. BET1A, a human bronchial epithelial cell line, was cultured in serum-free Lechner and […] medium (LHC-8, Biofluids, Inc., Rockville, Md.) with additives 0.33 nM retinoic acid, […] epinephrine and the antibiotic combination, 1% penicillin/streptomycin, on plates pre-coated with coating media containing 29 μg/ml collagen (Vitrogen: Collagen Corp., Palo Alto, Calif.), 10 μg/ml bovine serum albumin (Biofluids, Rockville, Md.), and 10 μg/ml fibronectin (Calbiochem, La Jolla, Calif.) for 5 min. HAEC obtained by bronchial brushing were cultured in serum-free Lechner and […] media (LHC8) on plates pre-coated with coating media ([…], et al., Cancer Res 1988, 48:1904-1909). […] T. Baker Inc, […], et al., FASEB J 2001, 15:70-78), or hydrogen peroxide (Sigma, St. Louis, Mo.) in a dose and time dependent manner. 293T cells, a clone of 293 (human embryonic kidney fibroblast cells) that expresses the Simian virus 40 large-T antigen, were maintained in DMEM (Invitrogen) with 10% FCS. Cell Viability and Apoptosis detection. Cell viability was assessed by bright-field microscopy using a trypan blue dye (0.4%) exclusion method. The mean survival was determined by examining four different low power fields. Annexin V binding was used to detect apoptotic cells as previously described (Trautmann A, et al., J Allergy Clin Immunol 2001, 108:839-846). Briefly, cells were incubated with 1.0 μg/mL annexin V-FITC and 2.5 μg/mL propidium iodide (BD Biosciences, Palo Alto, Calif.). The stained cells were analyzed with a FACScan (Becton Dickinson, San Jose, Calif.), using an argon ion laser at 488 nm and emission recorded at 520 nm with band pass and short pass filters. Gating was done on the forward angle and right angle light scatter only to exclude debris and cell clumps. […] The RFI was calculated using the ratio of the linearized mean fluorescence of the cell populations, as provided by the CellQuest software (Becton Dickinson, San Jose, Calif.). Apoptotic cells are identified as the Annexin positive-PI negative fraction.

The next series relates to caspase-3. Briefly: Caspase-3-like enzyme activity in BET1A cells. As to conditions: time dependent. On the procedure: as §1, with “293T cells, a clone of 293 (human embryonic kidney fibroblast cells) that expresses the Simian virus 40 large-T antigen, were maintained in DMEM (Invitrogen) with 10% FCS.” left out
Caspase-3-like enzyme activity. Caspase-3-like activity was measured by a […] assay (BD PharMingen, San Diego, Calif.). […] AMC fluorescence is quantified by UV spectrofluorometry with an excitation wavelength of 380 nm and an emission wavelength range of 420-460 nm.

A further series deals with BAX. Briefly: BAX levels by Western blot. As to conditions: BET1A cells. The method, then: as §1, §2
A general note: In western blotting, separated proteins are transferred to a membrane and probed.

For the next series, the system named is GSH. In words: Intracellular GSH in BET1A cells. On the procedure:
Antioxidant assays. Bronchial epithelial cells (BET1A) exposed to 5 µM 2-ME for 30 min to 24 h, or serum of asthmatic individuals, were assayed for glutathione (GSH), glutathione peroxidase (GPx), catalase, and SOD activity. SOD activity was determined by the rate of reduction of cytochrome c, with one unit (U) of SOD activity defined as the amount of SOD required to inhibit the rate of cytochrome c reduction by 50% (Nebot C, et al., Anal Biochem 1993, 214:442-451). The final reaction volume was 3 ml and included 50 mM potassium phosphate buffer, […] cytochrome c, 0.05 mM xanthine, and a 0.1 mM EDTA solution. Xanthine oxidase (Sigma, St Louis, Mo.) was added at a concentration sufficient to induce a 0.020 per minute change in absorbance at 550 nm. GSH levels were measured as previously described (Comhair S A, et al., Am J Respir Crit Care Med 1999, 159:1824-1829).

A further series deals with BET1A-cells. Briefly: Tyrosine nitrated proteins in BET1A cells (anti-nitrotyrosine Western, 2D gel). On the procedure: Western Blot Assay. Airway epithelial cells freshly obtained by bronchoscopic brushing from asthmatics and healthy controls, or BET1A cells, were suspended in buffer (3 mM dithiothreitol, 5 μg/ml aprotinin, 1 μg/ml leupeptin and pepstatin A, 0.1 mM PMSF, 1% NP40 and 40 mM Hepes pH 7.5) and cell lysate prepared by three cycles of freeze/thaw. Total protein was measured by using the Coomassie protein assay (Pierce, Rockford, Ill.). Whole cell lysate protein was denatured and reduced by treatment with buffer containing 0.05 M Tris (pH 6.8), 1% sodium dodecyl sulfate (SDS), 10% glycerol, 0.00125% bromphenol blue and 0.5% β mercaptoethanol for 3 minutes at 95° C. Total protein was separated by electrophoresis on a 10% SDS-polyacrylamide gel, and then electrophoretically transferred onto nitrocellulose (NitroBind EP4HY315F5, Fisher Scientific, Pittsburgh, Pa.) or Polyvinylidene Difluoride membrane (Pierce, Rockford, Ill.) for 1 h at 4° C. Membranes were incubated with blocking buffer [5% non fat dry milk in TBS (20 mM Tris-HCl (pH 7.0) and 137 mM NaCl) with 0.1% Tween] for 1 h at room temperature to block nonspecific binding and then probed with a primary antibody in blocking buffer overnight at 4° C. […]
Two dimentional gel electrophoresis. […] Total Protein was measured by using Coomassie protein assay (Pierce, Rockfod, Ill.). […]

The test system of a further series is MnSOD. Briefly: MnSOD silencing by siRNA in 293T cells, caspase-3 activity. The following applies: 48 h after transfection. The method, then: Caspase-3-like enzyme activity. Caspase-3-like activity was measured by a […] assay (BD PharMingen, San Diego, Calif.). This assay measures active caspase-3 binding to fluorogenic Ac-DEVD-AMC substrate and its cleavage to release the fluorescent AMC. AMC fluorescence is quantified by UV spectrofluorometry with an excitation wavelength of 380 nm and an emission wavelength range of 420-460 nm.
Transfection of siRNA MnSOD. MnSOD siRNA was synthesized by Ambion (Austin, Tex.). The sense and antisense MnSOD siRNA were 5-GGAACAACAGGCCUUAUUCtt-3 (sense) and 5-GAAUAAGGCCUGUUGUUCCtt-3 (antisense). Silencer™ Negative control #1 siRNA (siRNA control) (Ambion, Austin Tex.) was used as a control. 293T-cells, at 60% confluence in […] plates, were transfected in serum-free medium (DMEM, Invitrogen, Carlsbad Calif.) by using lipofectamine reagent (Invitrogen, Carlsbad Calif.) according to the manufacturer's instructions. For the silencing experiments, cells were transfected with […] of MnSOD siRNA or with 50 nM of Silencer™ Negative Control #1 siRNA. 48 h after transfection, cells were washed, trypsinized and harvested for evaluation of mRNA, protein expression, and caspase-3 activity.

Regarding `COc1cc2c(cc1O)CC[C@@H]1[C@@H]2CC[C@]2(C)[C@@H](O)CC[C@@H]12` [2-ME, 2-Methoxyoestradiol], the “blocked the activity of SOD” value in the series on SOD (5 μM, 3 h, p=0.004) is on record as “up to 86%”. The SOD protein result with SOD protein is given as “did not cause a decrease of SOD protein”. The “cell viability (trypan blue)” value in the series on BET1A cells [1] was “decrease in cell viability”. Moreover, the “apoptotic cells (Annexin V staining)” value in the series on BET1A cells [2] was “increase in apoptotic cells as early as 17 h”. For the same compound, the caspase-3 activity entry with caspase-3 is reported as “significantly increased”. Further, the BAX levels result in the series with BAX was “upregulation of BAX levels”. In addition, the “intracellular GSH” value in the series on GSH was “rapid depletion of intracellular GSH”. The tyrosine nitrated proteins result in the series on BET1A-cells is recorded as “increase in tyrosine nitrated proteins”.

As to `OO` [H202, hydrogen peroxide], in the series with SOD, the SOD activity entry is listed as “loss of SOD activity”. In addition, the apoptosis result in the series with BET1A cells [2] is “increased apoptosis”.

Take `Oc1cccc(O)c1O` [pyrogallol]: the SOD activity result with SOD was “loss of SOD activity”. Besides, the apoptosis result in the series with BET1A cells [2] is “increased apoptosis”.

Regarding “MnSOD siRNA: siRNA, sense 5-GGAACAACAGGCCUUAUUCtt-3, antisense 5-GAAUAAGGCCUGUUGUUCCtt-3, synthesized by Ambion (sense GGAACAACAGGCCUUAUUCTT; antisense GAAUAAGGCCUGUUGUUCCTT; 3' tt overhangs, chemistry not given here, further chemistry not given here)”, in the series with MnSOD, the caspase-3 activation result is “caspase-3 activation”.

Source of the values: patent US20110165594A1, “SYSTEMIC MARKERS FOR ASTHMA AND ANALOGOUS DISEASES” (THE CLEVELAND CLINIC FOUNDATION, priority 2005, published 2011).
